The record followed here is patent US11414416B1, “Compounds and uses thereof” (Foghorn Therapeutics Inc., priority 2019, dated 2022).

Chain of Nanoluciferase-BRD9 fusion protein (Q9H8M2 whole entry, the tested form may be a part): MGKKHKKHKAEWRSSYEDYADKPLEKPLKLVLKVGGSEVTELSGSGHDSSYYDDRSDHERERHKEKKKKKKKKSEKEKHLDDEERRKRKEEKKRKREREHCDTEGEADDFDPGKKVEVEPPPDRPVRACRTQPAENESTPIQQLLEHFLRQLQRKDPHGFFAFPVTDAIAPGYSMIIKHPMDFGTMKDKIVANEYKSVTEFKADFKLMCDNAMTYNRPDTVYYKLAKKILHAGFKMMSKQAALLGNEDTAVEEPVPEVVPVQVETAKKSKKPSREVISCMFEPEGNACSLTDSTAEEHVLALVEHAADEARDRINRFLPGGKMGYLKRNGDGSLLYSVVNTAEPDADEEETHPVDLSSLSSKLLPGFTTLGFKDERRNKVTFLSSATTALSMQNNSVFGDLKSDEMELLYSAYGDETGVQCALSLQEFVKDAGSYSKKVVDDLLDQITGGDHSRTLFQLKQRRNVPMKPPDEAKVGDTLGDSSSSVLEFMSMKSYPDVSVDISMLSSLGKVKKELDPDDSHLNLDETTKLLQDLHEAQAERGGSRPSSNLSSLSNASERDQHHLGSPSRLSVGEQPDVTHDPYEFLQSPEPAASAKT

The first experiment deals with Nanoluciferase-BRD9 fusion protein (Homo sapiens (Human), UniProt Q9H8M2). In words: SYO1 BRD9 NanoLuc degradation assay. Conditions: Table 5A; SYO-1 cells expressing 3×FLAG-NLuc-BRD9, 6 hours; read-out: SYO1 BRD9-NanoLuc degradation IC50. It counts as cell-based. The procedure:
Procedure: A stable SYO-1 cell line expressing 3×FLAG-NLuc-BRD9 was generated. On day 0 cells were seeded in 30 μL media into each well of 384-well cell culture plates. The seeding density was 8000 cells/well. […] Subsequently plates were incubated for 6 hours in a standard tissue culture incubator and equilibrated at room temperature for 15 minutes. Nanoluciferase activity was measured by adding 15 μL of freshly prepared Nano-Glo Luciferase Assay Reagent (Promega N1130), shaking the plates for 10 minutes and reading the bioluminescence using an EnVision reader.
DMSO treated cells are employed as High Control (HC) and 1 μM of a known BRD9 degrader standard treated cells are employed as Low Control (LC).
For the compound `COc1cc(-c2cn(C)c(=O)c3cnccc23)cc(OC)c1CN1CC[C@H]1C(=O)NCCCCCCCCNc1cccc2c1C(=O)N([C@@H]1CCC(=O)NC1=O)C2=O` (stereo in doubt) [Compound D18, (2S)-1-((2,6-dimethoxy-4-(2-methyl-1-oxo-2,7-naphthyridin-4-yl)phenyl)methy)-N-(8-((2-((R)-2,6-dioxopiperidin-3-yl)-1,3-dioxoisoindol-4-yl)amino)octyl) azetidine-2-carboxamide], the DC50 was under 10 nM. On to `COc1cc(-c2cn(C)c(=O)c3cnccc23)cc(OC)c1CN1CC(S(=O)(=O)NCCCCNc2ccc3c(c2)C(=O)N(C2CCC(=O)NC2=O)C3=O)C1` (centres unmarked) [Compound D22, 1-[[2,6-dimethoxy-4-(2-methyl-1-oxo-1,2-dihydro-2,7-naphthyridin-4-yl)phenyl]methyl]-N-(4-[[2-(2,6-dioxopiperidin-3-yl)-1,3-dioxo-2,3-dihydro-1H-isoindol-5-yl]amino]butyl) azetidine-3-sulfonamide formic acid], for which the DC50 is 10 to 100 nM. Consider `COc1cc(-c2cn(C)c(=O)c3cnccc23)cc(OC)c1CN1CC(N)(C(=O)NCCCCCCCCNc2cccc3c2C(=O)N(C2CCC(=O)NC2=O)C3=O)C1` (centres unmarked) [Compound D17, 3-amino-1-[[2,6-dimethoxy-4-(2-methyl-1-oxo-1,2-dihydro-2,7-naphthyridin-4-yl)phenyl]methyl]-N-(8-[[2-(2,6-dioxopiperidin-3-yl)-1,3-dioxo-2,3-dihydro-1H-isoindol-4-yl]amino]octyl)azetidine-3-carboxamide], for which the DC50 was under 10 nM.

Staying with this experiment, now noted: Table 5B; SYO-1 cells expressing 3×FLAG-NLuc-BRD9, 6 hours; read-out: SYO1 BRD9-NanoLuc degradation IC50.
As for `COc1cc(-c2cn(C)c(=O)c3cnccc23)cc(OC)c1CN1CC(CC(=O)N2CC3(CCN(c4ccc5c(c4)C(=O)N(C4CCC(=O)NC4=O)C5=O)CC3)C2)C1` (centres unmarked) [Compound D190], the DC50 was 10 to 100 nM. Consider `COc1cc(-c2cn(C)c(=O)c3cnccc23)cc(OC)c1CN(C)CCCCN1CCC2(CCN(c3ccc4c(c3)C(=O)N(C3CCC(=O)NC3=O)C4=O)C2)C1` (centres unmarked) [Compound D225], for which the DC50 was under 10 nM. Turning to `COc1cc(-c2cn(C)c(=O)c3cnccc23)cc(OC)c1CN1CCC2(CC1)CN(C(=O)C#Cc1ccc3c(c1)C(=O)N(C1CCC(=O)NC1=O)C3=O)C2` (centres unmarked) [Compound D197], the DC50 is under 10 nM. For `COc1cc(-c2cn(C)c(=O)c3cnccc23)cc(OC)c1CN1CC(CC(=O)NC2CC3(C2)CC(Oc2ccc4c(c2)C(=O)N(C2CCC(=O)NC2=O)C4=O)C3)C1` (centres unmarked) [Compound D182], the DC50 fell in the range of 10 to 100 nM. As for `COc1cc(-c2cn(C)c(=O)c3cnccc23)cc(OC)c1CN1CC(CC(=O)N2CCCC3(CC(Oc4ccc5c(c4)C(=O)N([C@H]4CCC(=O)NC4=O)C5=O)C3)C2)C1` (some centres unmarked) [Compound D265], the DC50 lay in the range of 100 to 1000 nM. The same measure, in the same setting: the figure for `COc1cc(-c2ccc(=O)n(C)c2)cc(OC)c1CN1CC(CN2CCC3(CC2)CN(c2ccc4c(c2)C(=O)N(C2CCC(=O)NC2=O)C4=O)C3)C1` (centres unmarked) [Compound D347] is under 10 nM. Same read-out and setting: in the case of `COc1cc(-c2cc(C)c(=O)n(C)c2)cc(OC)c1CN1CCC2(CC1)CC(Oc1ccc3c(c1)C(=O)N(C1CCC(=O)NC1=O)C3=O)C2` (centres unmarked) [Compound D332] it was under 10 nM. The same measure, in the same setting: in the case of `COc1cc(-c2cn(C)c(=O)c3cnccc23)cc(OC)c1CN1CC(n2cc(CN3CC(Oc4ccc5c(c4)C(=O)N(C4CCC(=O)NC4=O)C5=O)C3)nn2)C1` (centres unmarked) [Compound D300] it was under 10 nM. For `COc1cc(-c2cn(C)c(=O)c3cncn23)cc(OC)c1CN1CC(CN2CCC3(CC2)CN(c2ccc4c(c2)CN(C2CCC(=O)NC2=O)C4=O)C3)C1` (centres unmarked) [Compound D363], the DC50 was under 10 nM. The same measure, in the same setting: the figure for `COc1cc(-c2cn(C)c(=O)c3cnccc23)cc(OC)c1CN1CCC2(CC1)CN(C(=O)CCC#Cc1ccc3c(c1)C(=O)N(C1CCC(=O)NC1=O)C3=O)C2` (centres unmarked) [Compound D217] is under 10 nM. On the same count and under the same terms, the figure for `COc1cc(-c2cn(C)c(=O)c3cnccc23)cc(OC)c1CN(C)CCn1cc(COC2CCN(c3ccc4c(c3)C(=O)N(C3CCC(=O)NC3=O)C4=O)CC2)nn1` (centres unmarked) [Compound D278] is 10 to 100 nM; for `COc1cc(-c2cn(C)c(=O)c3cnccc23)cc(OC)c1CN1CCC2(CC1)CN(C(=O)CC#Cc1ccc3c(c1)C(=O)N(C1CCC(=O)NC1=O)C3=O)C2` (centres unmarked) [Compound D318] it is under 10 nM; for `COc1cc(-c2cc(C)c(=O)n(C)c2)cc(OC)c1CN1CCC(n2cc([C@H](C)Oc3ccc4c(c3)C(=O)N(C3CCC(=O)NC3=O)C4=O)nn2)CC1` (some centres unmarked) [Compound D333] it is under 10 nM. In the case of `COc1cc(-c2cn(C)c(=O)c3cnccc23)cc(OC)c1CN1CC(CC(=O)N2CCC3(CC(Oc4ccc5c(c4)C(=O)N([C@H]4CCC(=O)NC4=O)C5=O)C3)C2)C1` (some centres unmarked) [Compound D267], the DC50 is 10 to 100 nM. The same measure, in the same setting: the figure for `COc1cc(-c2cn(C)c(=O)c3cnccc23)cc(OC)c1CN1CC(CC(=O)NC2CC3(C2)CN(c2ccc4c(c2)C(=O)N(C2CCC(=O)NC2=O)C4=O)C3)C1` (centres unmarked) [Compound D194] is under 10 nM; for `COc1cc(-c2cn(C)c(=O)c3cnccc23)cc(OC)c1CN(C)CCCCN1CC2(CCC(Oc3ccc4c(c3)C(=O)N(C3CCC(=O)NC3=O)C4=O)C2)C1` (centres unmarked) [Compound D259] it is under 10 nM; for `COc1cc(-c2cn(C)c(=O)c3cnccc23)cc(OC)c1CN1CC2(CN(CCCC#Cc3ccc4c(c3)C(=O)N(C3CCC(=O)NC3=O)C4=O)C2)C1` (centres unmarked) [Compound D215] it is under 10 nM. For `COc1cc(-c2cn(C)c(=O)n3ccnc23)cc(OC)c1CN1CC(CN2CCC3(CC2)CN(c2ccc4c(c2)C(=O)N(C2CCC(=O)NC2=O)C4)C3)C1` (centres unmarked) [Compound D365], the DC50 fell in the range of 10 to 100 nM.

With `COc1cc(-c2cn(C)c(=O)c3cnccc23)cc(OC)c1CN(C)C(=O)CCCCN1CC2(C1)CN(c1ccc3c(c1)C(=O)N(C1CCC(=O)NC1=O)C3=O)C2` (centres unmarked) [Compound D206], the DC50 is under 10 nM. Consider `COc1cc(-c2cc(C)c(=O)n(C)c2)cc(OC)c1CN1CCN(c2ccc3c(c2)C(=O)N(C2CCC(=O)NC2=O)C3=O)CC1` (centres unmarked) [Compound D330], for which the DC50 is under 10 nM.

For `COc1cc(-c2cn(C)c(=O)c3[nH]ccc23)cc(OC)c1CN1CCC2(CC1)CN(c1ccc3c(c1)C(=O)N(C1CCC(=O)NC1=O)C3=O)C2` (centres unmarked) [Compound D340], the DC50 is under 10 nM.

Consider `COc1cc(-c2cn(C)c(=O)c3cnccc23)cc(OC)c1CN1CC(n2cc(COc3ccc4c(c3)C(=O)N(C3CCC(=O)NC3=O)C4=O)nn2)C1` (centres unmarked) [Compound D297], for which the DC50 is under 10 nM.

As for `COc1cc(-c2cn(C)c(=O)c3cnccc23)cc(OC)c1CN1CC(CCN2CCC3(CC2)CC(Oc2ccc4c(c2)C(=O)N(C2CCC(=O)NC2=O)C4=O)C3)C1` (centres unmarked) [Compound D305], the DC50 was 100 to 1000 nM. In the case of `COc1cc(-c2cn(C)c(=O)c3cnccc23)cc(OC)c1CN1CCC2(CC1)CN(CCCC#Cc1ccc3c(c1)C(=O)N(C1CCC(=O)NC1=O)C3=O)C2` (centres unmarked) [Compound D196], the DC50 was in the range of 10 to 100 nM. Take `COc1cc(-c2cnc(=O)n(C)c2)cc(OC)c1CN1CCN(CCC2CCN(c3ccc4c(c3)C(=O)N(C3CCC(=O)NC3=O)C4=O)CC2)CC1` (centres unmarked) [Compound D342]: the DC50 is over 1000 nM.

With `COc1cc(-c2cn(C)c(=O)c3cnccc23)cc(OC)c1CN1CCN(CCCC#Cc2ccc3c(c2)C(=O)N(C2CCC(=O)NC2=O)C3=O)CC1` (centres unmarked) [Compound D214], the DC50 is under 10 nM.

In the case of `COc1cc(-c2cn(C)c(=O)c3cnccc23)cc(OC)c1CN1CC(CC(=O)N2CCC3(CC2)CC(Oc2ccc4c(c2)C(=O)N(C2CCC(=O)NC2=O)C4=O)C3)C1` (centres unmarked) [Compound D184], the DC50 is under 10 nM.

The experiment is the same for the next values; noted with them: Table 5C; SYO-1 cells expressing 3×FLAG-NLuc-BRD9, 6 hours; read-out: SYO1 BRD9-NanoLuc degradation IC50.
With `COc1cc(-c2cn(C)c(=O)c3cnccc23)cc(OC)c1CN1CC(Oc2ccc3c(c2)C(=O)N(C2CCC(=O)NC2=O)C3=O)C1C` (centres unmarked) [Compound D376], the DC50 was under 10 nM. `COc1cc(-c2cn(C)c(=O)c3cn(C)nc23)cc(OC)c1CN1CCC2(CC1)CN(c1ccc3c(c1)C(=O)N(C1CCC(=O)NC1=O)C3)C2` (centres unmarked) [Compound D416]: the DC50 was under 10 nM.

Regarding `C=CCn1cc(-c2cc(OC)c(CN3CCC4(C3)CN(c3ccc5c(c3)C(=O)N(C3CCC(=O)NC3=O)C5)C4)c(OC)c2)cc(C(F)F)c1=O` (centres unmarked) [Compound D404], the DC50 was under 10 nM. On the same count and under the same terms, the figure for `COc1cc(-c2c(C)n(C)c(=O)c3[nH]c(C)cc23)cc(OC)c1CN1CCC2(CC1)CN(c1ccc3c(c1)C(=O)N(C1CCC(=O)NC1=O)C3)C2` (centres unmarked) [Compound D437] is over 1000 nM; for `COc1cc(-c2cn(C)c(=O)c3cnccc23)cc(OC)c1CN1CCC2(CC1)CN(c1ccc3c(c1)C(=O)N(C1CCCNC1=O)C3)C2` (centres unmarked) [Compound D389] it is over 1000 nM. Turning to `COc1cc(-c2cc(C(F)F)c(=O)n(C)c2)cc(OC)c1CN1CCN(CCC2CCN(c3ccc4c(c3)C(=O)N(C3CCC(=O)NC3=O)C4)CC2)CC1` (centres unmarked) [Compound D399], the DC50 was under 10 nM. With `COc1cc(-c2cn(C)c(=O)c3cnccc23)cc(OC)c1CN1CC(Oc2ccc3c(c2)C(=O)N(C2CCC(=O)N(COC(=O)[C@@H](N)C(C)C)C2=O)C3=O)C1` (some centres unmarked) [Compound D381], the DC50 was under 10 nM.

Consider `COc1cc(-c2cc(C)c(=O)n(C)c2C)cc(OC)c1CN1CCC2(C1)CN(c1ccc3c(c1)C(=O)N(C1CCC(=O)NC1=O)C3)C2` (centres unmarked) [Compound D396], for which the DC50 is under 10 nM. For `COc1cc(-c2cn(C)c(=O)c3cnn(C)c23)cc(OC)c1CN1CCC2(CC1)CN(c1ccc3c(c1)C(=O)N(C1CCC(=O)NC1=O)C3)C2` (centres unmarked) [Compound D414], the DC50 is under 10 nM. For the compound `COc1cc(-c2c(C)n(C)c(=O)c3[nH]cc(C)c23)cc(OC)c1CN1CCC2(CC1)CN(c1ccc3c(c1)C(=O)N(C1CCC(=O)NC1=O)C3=O)C2` (centres unmarked) [Compound D445], the DC50 was over 1000 nM. On the same count and under the same terms, the figure for `COc1cc(-c2cc(C(F)F)c(=O)n(C)c2)cc(OC)c1CN1CCC2(C1)CN(c1ccn3c(=O)n(C4CCC(=O)NC4=O)nc3c1)C2` (centres unmarked) [Compound D432] is 10 to 100 nM.
